Source: US8952024B2, “Herbicidal pyrimidone derivatives” (E I du Pont de Nemours and Company, priority 2009, dated 2015)

What was measured:
Assay type in all cases: in vivo
[1] = tested on: barnyardgrass (Echinochloa crus-galli); assay: Test A pre-/postemergence plant response; details: for Barnyardgrass plant response rating: visual injury, 0 to 100 scale (0 no effect, 100 complete control), approx. ten days
How it was run: (§1)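 Both pre- and postemergence treatments are applied simultaneously, using chemicals formulated in a non-phytotoxic solvent mixture with surfactant. Postemergence plants are 2–10 cm high with one to two leaves. After approximately ten days in a greenhouse, injury is scored visually from 0 (none) to 100 (complete control) relative to untreated plants.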

[2] = tested on: corn (Zea mays); assay: Test A pre-/postemergence plant response; details: for Corn plant response rating: visual injury, 0 to 100 scale (0 no effect, 100 complete control), approx. ten days
How it was run: as §1

[3] = tested on: giant foxtail (Setaria faberii); assay: Test A pre-/postemergence plant response; details: for Foxtail, Giant plant response rating: visual injury, 0 to 100 scale (0 no effect, 100 complete control), approx. ten days
How it was run: as §1

[4] = tested on: large crabgrass (Digitaria sanguinalis); assay: Test A pre-/postemergence plant response; details: for Crabgrass, Large plant response rating: visual injury, 0 to 100 scale (0 no effect, 100 complete control), approx. ten days
How it was run: as §1

[5] = tested on: morningglory (Ipomoea spp.); assay: Test A pre-/postemergence plant response; details: for Morningglory plant response rating: visual injury, 0 to 100 scale (0 no effect, 100 complete control), approx. ten days
How it was run: as §1

[6] = tested on: pigweed (Amaranthus retroflexus); assay: Test A pre-/postemergence plant response; details: for Pigweed plant response rating: visual injury, 0 to 100 scale (0 no effect, 100 complete control), approx. ten days
How it was run: as §1

[7] = tested on: velvetleaf (Abutilon theophrasti); assay: Test A pre-/postemergence plant response; details: for Velvetleaf plant response rating: visual injury, 0 to 100 scale (0 no effect, 100 complete control), approx. ten days
How it was run: as §1

[8] = tested on: wheat (Triticum aestivum); assay: Test A pre-/postemergence plant response; details: for Wheat plant response rating: visual injury, 0 to 100 scale (0 no effect, 100 complete control), approx. ten days
How it was run: as §1

[9] = tested on: barnyardgrass (Echinochloa crus-galli); assay: Test B flooded paddy test; details: for Plant response rating, Flood, Barnyardgrass: 250 g ai/ha, flooded paddy test, visual rating on 0 to 100 scale (0 no effect, 100 complete control) after 13 to 15 days; for Plant response rating, Barnyardgrass: Flood (flooded paddy test), 13 to 15 days; for Barnyardgrass plant response rating: Flood, 31 g ai/ha, scale 0 to 100 (0 no effect, 100 complete control)
How it was run: (§2)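 Greenhouse-held for 13 to 15 days, treated pots were compared visually with controls and scored 0–100 (0, no effect). Treatment had been made into paddy water kept at 3 cm above the soil, with plants at the 2-leaf stage.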

[10] = tested on: ducksalad (Heteranthera limosa); assay: Test B flooded paddy test; details: for Plant response rating, Flood, Ducksalad: 250 g ai/ha, flooded paddy test, visual rating on 0 to 100 scale (0 no effect, 100 complete control) after 13 to 15 days; for Plant response rating, Ducksalad: Flood (flooded paddy test), 13 to 15 days; for Ducksalad plant response rating: Flood, 31 g ai/ha, scale 0 to 100 (0 no effect, 100 complete control)
How it was run: as §2

[11] = tested on: rice (Oryza sativa); assay: Test B flooded paddy test; details: for Plant response rating, Flood, Rice: 250 g ai/ha, flooded paddy test, visual rating on 0 to 100 scale (0 no effect, 100 complete control) after 13 to 15 days; for Plant response rating, Rice: Flood (flooded paddy test), 13 to 15 days; for Rice plant response rating: Flood, 31 g ai/ha, scale 0 to 100 (0 no effect, 100 complete control)
How it was run: as §2

[12] = tested on: umbrella sedge (Cyperus difformis); assay: Test B flooded paddy test; details: for Plant response rating, Flood, Sedge, Umbrella: 250 g ai/ha, flooded paddy test, visual rating on 0 to 100 scale (0 no effect, 100 complete control) after 13 to 15 days; for Plant response rating, Sedge, Umbrella: Flood (flooded paddy test), 13 to 15 days; for Sedge, Umbrella plant response rating: Flood, 31 g ai/ha, scale 0 to 100 (0 no effect, 100 complete control)
How it was run: as §2

[13] = Postemergence, 125 g ai/ha, 0 to 100 scale where 0 is no effect and 100 is complete control
[14] = Preemergence, 125 g ai/ha, 0 to 100 scale, 0 = no effect, 100 = complete control
[15] = Preemergence, 500 g ai/ha, 0 to 100 scale, 0 = no effect, 100 = complete control
[16] = 62 g ai/ha, scale of 0 to 100 where 0 is no effect and 100 is complete control
[17] = 125 g ai/ha, scale 0 to 100, 0 is no effect, 100 is complete control

O=C1CCCC(O)=C1C(=O)c1cnc(-c2ccccc2)n(C2CCCCCCC2)c1=O [Compound 215]
Plant response rating, Barnyardgrass [1, 13]: 90 | Barnyardgrass plant response rating ([1]; Postemergence, 500 g ai/ha): 100 | Plant response rating, Barnyardgrass [1, 14]: 0 | Plant response rating, Barnyardgrass [1, 15]: 20 | Plant response rating, Corn [2, 13]: 0 | Corn plant response rating ([2]; Postemergence, 500 g ai/ha): 30 | Plant response rating, Corn [2, 14]: 0 | Plant response rating, Corn [2, 15]: 0 | Plant response rating, Foxtail, Giant [3, 13]: 40 | Foxtail, Giant plant response rating ([3]; Postemergence, 500 g ai/ha): 80 | Plant response rating, Foxtail, Giant [3, 14]: 10 | Plant response rating, Foxtail, Giant [3, 15]: 30 | Plant response rating, Crabgrass, Large [4, 13]: 40 | Crabgrass, Large plant response rating ([4]; Postemergence, 500 g ai/ha): 70 | Plant response rating, Crabgrass, Large [4, 14]: 0 | Plant response rating, Crabgrass, Large [4, 15]: 60 | Plant response rating, Morningglory [5, 13]: 100 | Morningglory plant response rating ([5]; Postemergence, 500 g ai/ha): 100 | Plant response rating, Morningglory [5, 14]: 0 | Plant response rating, Morningglory [5, 15]: 70 | Plant response rating, Pigweed [6, 13]: 90 | Pigweed plant response rating ([6]; Postemergence, 500 g ai/ha): 100 | Plant response rating, Pigweed [6, 14]: 20 | Plant response rating, Pigweed [6, 15]: 90 | Plant response rating, Velvetleaf [7, 13]: 100 | Velvetleaf plant response rating ([7]; Postemergence, 500 g ai/ha): 100 | Plant response rating, Velvetleaf [7, 14]: 0 | Plant response rating, Velvetleaf [7, 15]: 70 | Plant response rating, Wheat [8, 13]: 0 | Wheat plant response rating ([8]; Postemergence, 500 g ai/ha): 0 | Plant response rating, Wheat [8, 14]: 0 | Plant response rating, Wheat [8, 15]: 0 | Plant response rating, Flood, Barnyardgrass [9]: 40 | Plant response rating, Barnyardgrass [9, 16]: 0 | Plant response rating, Barnyardgrass [9, 17]: 30 | Barnyardgrass plant response rating [9]: 0 | Plant response rating, Flood, Ducksalad [10]: 85 | Plant response rating, Ducksalad [10, 16]: 75 | Plant response rating, Ducksalad [10, 17]: 85 | Ducksalad plant response rating [10]: 70 | Plant response rating, Flood, Rice [11]: 15 | Plant response rating, Rice [11, 16]: 0 | Plant response rating, Rice [11, 17]: 0 | Rice plant response rating [11]: 0 | Plant response rating, Flood, Sedge, Umbrella [12]: 90 | Plant response rating, Sedge, Umbrella [12, 16]: 0 | Plant response rating, Sedge, Umbrella [12, 17]: 75 | Sedge, Umbrella plant response rating [12]: 0

Cc1c(F)cccc1-n1c(-c2ccccc2)ncc(C(=O)C2=C(O)C3CCC(C3)C2=O)c1=O (stereo not drawn) [Compound 234]
Plant response rating, Barnyardgrass [1, 13]: 80 | Barnyardgrass plant response rating ([1]; Postemergence, 500 g ai/ha): 100 | Plant response rating, Barnyardgrass [1, 14]: 0 | Plant response rating, Barnyardgrass [1, 15]: 80 | Plant response rating, Corn [2, 13]: 20 | Corn plant response rating ([2]; Postemergence, 500 g ai/ha): 50 | Plant response rating, Corn [2, 14]: 0 | Plant response rating, Corn [2, 15]: 20 | Plant response rating, Foxtail, Giant [3, 13]: 70 | Foxtail, Giant plant response rating ([3]; Postemergence, 500 g ai/ha): 90 | Plant response rating, Foxtail, Giant [3, 14]: 10 | Plant response rating, Foxtail, Giant [3, 15]: 60 | Plant response rating, Crabgrass, Large [4, 13]: 40 | Crabgrass, Large plant response rating ([4]; Postemergence, 500 g ai/ha): 90 | Plant response rating, Crabgrass, Large [4, 14]: 60 | Plant response rating, Crabgrass, Large [4, 15]: 90 | Plant response rating, Morningglory [5, 13]: 100 | Morningglory plant response rating ([5]; Postemergence, 500 g ai/ha): 100 | Plant response rating, Morningglory [5, 15]: 10 | Plant response rating, Pigweed [6, 13]: 70 | Pigweed plant response rating ([6]; Postemergence, 500 g ai/ha): 90 | Plant response rating, Pigweed [6, 14]: 50 | Plant response rating, Pigweed [6, 15]: 60 | Plant response rating, Velvetleaf [7, 13]: 100 | Velvetleaf plant response rating ([7]; Postemergence, 500 g ai/ha): 100 | Plant response rating, Velvetleaf [7, 14]: 30 | Plant response rating, Velvetleaf [7, 15]: 90 | Plant response rating, Wheat [8, 13]: 0 | Wheat plant response rating ([8]; Postemergence, 500 g ai/ha): 20 | Plant response rating, Wheat [8, 14]: 0 | Plant response rating, Wheat [8, 15]: 20 | Plant response rating, Flood, Barnyardgrass [9]: 0 | Plant response rating, Barnyardgrass [9, 16]: 0 | Plant response rating, Flood, Ducksalad [10]: 70 | Plant response rating, Ducksalad [10, 16]: 20 | Plant response rating, Flood, Rice [11]: 0 | Plant response rating, Rice [11, 16]: 0 | Plant response rating, Flood, Sedge, Umbrella [12]: 40 | Plant response rating, Sedge, Umbrella [12, 16]: 0

COc1cccc(-c2ncc(C(=O)C3=C(O)CCCC3=O)c(=O)n2C2CCCCC2)c1 [Compound 196]
Plant response rating, Barnyardgrass [1, 13]: 80 | Barnyardgrass plant response rating ([1]; Postemergence, 500 g ai/ha): 90 | Plant response rating, Barnyardgrass [1, 14]: 0 | Plant response rating, Barnyardgrass [1, 15]: 50 | Plant response rating, Corn [2, 13]: 10 | Corn plant response rating ([2]; Postemergence, 500 g ai/ha): 40 | Plant response rating, Corn [2, 14]: 0 | Plant response rating, Corn [2, 15]: 20 | Plant response rating, Foxtail, Giant [3, 13]: 70 | Foxtail, Giant plant response rating ([3]; Postemergence, 500 g ai/ha): 100 | Plant response rating, Foxtail, Giant [3, 14]: 0 | Plant response rating, Foxtail, Giant [3, 15]: 80 | Plant response rating, Crabgrass, Large [4, 13]: 50 | Crabgrass, Large plant response rating ([4]; Postemergence, 500 g ai/ha): 90 | Plant response rating, Crabgrass, Large [4, 14]: 0 | Plant response rating, Crabgrass, Large [4, 15]: 70 | Plant response rating, Morningglory [5, 13]: 100 | Morningglory plant response rating ([5]; Postemergence, 500 g ai/ha): 100 | Plant response rating, Morningglory [5, 14]: 0 | Plant response rating, Morningglory [5, 15]: 40 | Plant response rating, Pigweed [6, 13]: 80 | Pigweed plant response rating ([6]; Postemergence, 500 g ai/ha): 100 | Plant response rating, Pigweed [6, 14]: 0 | Plant response rating, Pigweed [6, 15]: 30 | Plant response rating, Velvetleaf [7, 13]: 100 | Velvetleaf plant response rating ([7]; Postemergence, 500 g ai/ha): 100 | Plant response rating, Velvetleaf [7, 14]: 0 | Plant response rating, Velvetleaf [7, 15]: 50 | Plant response rating, Wheat [8, 13]: 0 | Wheat plant response rating ([8]; Postemergence, 500 g ai/ha): 30 | Plant response rating, Wheat [8, 14]: 0 | Plant response rating, Wheat [8, 15]: 20 | Plant response rating, Flood, Barnyardgrass [9]: 30 | Plant response rating, Barnyardgrass [9, 16]: 0 | Plant response rating, Barnyardgrass [9, 17]: 20 | Barnyardgrass plant response rating [9]: 0 | Plant response rating, Flood, Ducksalad [10]: 95 | Plant response rating, Ducksalad [10, 16]: 60 | Plant response rating, Ducksalad [10, 17]: 95 | Ducksalad plant response rating [10]: 40 | Plant response rating, Flood, Rice [11]: 65 | Plant response rating, Rice [11, 16]: 0 | Plant response rating, Rice [11, 17]: 40 | Rice plant response rating [11]: 0 | Plant response rating, Flood, Sedge, Umbrella [12]: 80 | Plant response rating, Sedge, Umbrella [12, 16]: 30 | Plant response rating, Sedge, Umbrella [12, 17]: 75 | Sedge, Umbrella plant response rating [12]: 20
